PMC12016430 (The Journal of Headache and Pain, 2025)

Assays:
Assay in all cases: competitive gel-based ABPP
Type in all cases: cell-based
MAGL = biological target: T1, MAGL (Rattus norvegicus, UniProt Q8R431)
T1 sequence (Q8R431 1-303): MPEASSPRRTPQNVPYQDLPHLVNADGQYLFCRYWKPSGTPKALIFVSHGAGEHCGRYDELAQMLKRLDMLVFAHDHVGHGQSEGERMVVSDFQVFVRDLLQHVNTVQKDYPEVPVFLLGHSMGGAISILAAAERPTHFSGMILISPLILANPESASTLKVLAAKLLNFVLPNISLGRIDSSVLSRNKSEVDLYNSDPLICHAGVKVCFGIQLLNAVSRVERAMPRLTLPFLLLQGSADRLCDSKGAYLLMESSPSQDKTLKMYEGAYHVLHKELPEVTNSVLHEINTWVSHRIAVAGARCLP

ABHD6 = biological target: T2, ABHD6 (Rattus norvegicus, UniProt Q5XI64)
T2 sequence (Q5XI64 1-337): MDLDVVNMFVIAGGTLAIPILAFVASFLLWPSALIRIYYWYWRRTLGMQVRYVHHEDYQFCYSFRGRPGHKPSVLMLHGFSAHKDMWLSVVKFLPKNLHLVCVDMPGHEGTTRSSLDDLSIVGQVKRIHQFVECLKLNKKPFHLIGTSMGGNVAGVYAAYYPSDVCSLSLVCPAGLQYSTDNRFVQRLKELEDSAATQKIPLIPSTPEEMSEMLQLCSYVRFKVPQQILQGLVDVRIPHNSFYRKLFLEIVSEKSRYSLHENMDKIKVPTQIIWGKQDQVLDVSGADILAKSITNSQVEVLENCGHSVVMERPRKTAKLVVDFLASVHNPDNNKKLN

FAAH = biological target: T3, FAAH (Rattus norvegicus, UniProt P97612)
T3 sequence (P97612 1-579): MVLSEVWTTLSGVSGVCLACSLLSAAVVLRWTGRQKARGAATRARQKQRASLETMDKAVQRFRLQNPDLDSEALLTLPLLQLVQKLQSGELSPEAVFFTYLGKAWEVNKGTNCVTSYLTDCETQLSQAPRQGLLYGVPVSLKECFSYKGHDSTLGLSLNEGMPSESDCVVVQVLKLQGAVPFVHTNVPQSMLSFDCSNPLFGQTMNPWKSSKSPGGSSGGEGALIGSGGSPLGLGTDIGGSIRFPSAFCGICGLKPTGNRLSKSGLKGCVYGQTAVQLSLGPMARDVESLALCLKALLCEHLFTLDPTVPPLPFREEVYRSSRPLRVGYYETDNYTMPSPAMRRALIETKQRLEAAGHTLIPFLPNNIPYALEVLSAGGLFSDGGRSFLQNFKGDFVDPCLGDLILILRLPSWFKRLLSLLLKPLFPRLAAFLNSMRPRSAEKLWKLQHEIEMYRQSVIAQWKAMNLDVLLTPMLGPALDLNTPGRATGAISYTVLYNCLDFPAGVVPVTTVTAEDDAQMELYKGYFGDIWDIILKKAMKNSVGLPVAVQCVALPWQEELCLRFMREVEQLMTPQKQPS

% inhibition at 100 nM (MAGL): 79 | % inhibition at 100 nM (ABHD6): 30 | % inhibition at 100 nM (FAAH): 79
Structure (SMILES): O=C(N1CCN(C(c2ccccc2)c2ccccc2)CC1)n1cncn1 [AKU-005]
